Source: patent US9388189B2, “Pyrrolotriazinone derivatives as PI3K inhibitors” (ALMIRALL, S.A., priority 2012, dated 2016)

biological target: PI3Kδ (PI3Kd) (Homo sapiens (Human), UniProt O00329); experiment: PI3K HTRF enzymatic inhibition assay (cell-free), delta isoform; conditions: read-out: IC50 PI3Kd HTRF; recombinant PI3K delta, [ATP] 15 μM, [PIP2] 2 μM, 30 min preincubation
Sequence (O00329 whole entry, canonical isoform): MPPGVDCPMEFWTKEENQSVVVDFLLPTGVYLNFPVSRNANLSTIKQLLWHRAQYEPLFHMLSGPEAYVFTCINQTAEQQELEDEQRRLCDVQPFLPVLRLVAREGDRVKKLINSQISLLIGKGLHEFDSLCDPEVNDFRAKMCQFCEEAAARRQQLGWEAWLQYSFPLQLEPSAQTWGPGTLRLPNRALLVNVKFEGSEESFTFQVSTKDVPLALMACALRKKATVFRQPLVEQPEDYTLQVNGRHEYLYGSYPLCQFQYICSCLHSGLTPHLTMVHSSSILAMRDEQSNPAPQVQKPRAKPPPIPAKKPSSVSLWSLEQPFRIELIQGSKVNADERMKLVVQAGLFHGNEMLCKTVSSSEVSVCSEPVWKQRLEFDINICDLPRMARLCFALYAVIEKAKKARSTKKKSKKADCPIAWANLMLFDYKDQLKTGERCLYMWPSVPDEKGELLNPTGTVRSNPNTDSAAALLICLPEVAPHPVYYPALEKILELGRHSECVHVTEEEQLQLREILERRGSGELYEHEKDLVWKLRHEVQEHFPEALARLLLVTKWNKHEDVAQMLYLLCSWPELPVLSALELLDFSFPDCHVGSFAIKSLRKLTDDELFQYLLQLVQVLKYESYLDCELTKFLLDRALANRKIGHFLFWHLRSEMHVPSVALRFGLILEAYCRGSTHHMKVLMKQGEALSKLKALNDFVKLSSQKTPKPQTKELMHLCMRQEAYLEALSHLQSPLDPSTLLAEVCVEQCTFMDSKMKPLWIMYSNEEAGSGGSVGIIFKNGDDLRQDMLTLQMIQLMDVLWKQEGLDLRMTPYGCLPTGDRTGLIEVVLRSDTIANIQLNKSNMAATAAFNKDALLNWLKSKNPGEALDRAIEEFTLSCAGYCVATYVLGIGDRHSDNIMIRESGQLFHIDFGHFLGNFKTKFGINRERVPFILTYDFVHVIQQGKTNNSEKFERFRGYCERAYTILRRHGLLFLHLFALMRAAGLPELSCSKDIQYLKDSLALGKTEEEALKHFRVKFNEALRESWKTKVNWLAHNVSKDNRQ
Sequence (P27986 whole entry partner, canonical isoform): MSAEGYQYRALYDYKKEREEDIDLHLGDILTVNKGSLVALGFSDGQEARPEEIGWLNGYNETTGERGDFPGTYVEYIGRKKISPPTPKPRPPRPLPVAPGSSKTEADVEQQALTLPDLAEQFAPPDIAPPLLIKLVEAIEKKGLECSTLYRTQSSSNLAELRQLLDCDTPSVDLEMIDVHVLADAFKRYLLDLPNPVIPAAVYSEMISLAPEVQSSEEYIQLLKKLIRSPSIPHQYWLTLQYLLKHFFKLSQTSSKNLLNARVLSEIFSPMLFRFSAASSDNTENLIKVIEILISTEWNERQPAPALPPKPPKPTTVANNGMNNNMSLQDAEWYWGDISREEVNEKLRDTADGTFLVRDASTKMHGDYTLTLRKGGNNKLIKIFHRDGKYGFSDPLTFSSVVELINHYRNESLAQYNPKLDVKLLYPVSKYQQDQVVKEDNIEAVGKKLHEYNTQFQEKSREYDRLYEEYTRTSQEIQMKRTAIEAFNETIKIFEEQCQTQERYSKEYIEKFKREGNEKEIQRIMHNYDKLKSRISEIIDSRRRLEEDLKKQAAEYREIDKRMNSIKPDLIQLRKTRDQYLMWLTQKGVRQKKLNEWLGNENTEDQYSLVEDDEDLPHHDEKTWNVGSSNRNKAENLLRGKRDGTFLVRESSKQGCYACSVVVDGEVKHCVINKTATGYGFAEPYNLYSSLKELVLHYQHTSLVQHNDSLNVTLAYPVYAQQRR

| IC50 | Compound |
| --- | --- |
| 2 nM | Cc1ccn2nc([C@H](C)Nc3ncnc(N)c3-c3cccc(C(=O)Nc4cccc(O)c4)c3)n(-c3ccccc3)c(=O)c12 [Example 168, (S)-3-(4-Amino-6-((1-(5-methyl-4-oxo-3-phenyl-3,4-dihydropyrrolo[2,1-f][1,2,4]triazin-2-yl)ethyl)amino)pyrimidin-5-yl)-N-(3-hydroxyphenyl)benzamide] |
| 3 nM | Cc1ccn2nc(CNc3ncnc(N)c3-c3cncc(C(F)F)c3)n(-c3ccccc3)c(=O)c12 [Example 169, 2-(((6-Amino-5-(5-(difluoromethyl)pyridin-3-yl)pyrimidin-4-yl)amino)methyl)-5-methyl-3-phenylpyrrolo[2,1-f][1,2,4]triazin-4(3H)-one] |
| 5 nM | Cc1ccn2nc([C@H](C)Nc3ncnc(N)c3-c3cc(O)c4ccn(S(=O)(=O)c5ccc(O)cc5F)c4c3)n(-c3ccccc3)c(=O)c12 [Example 171, (S)-2-(1-((6-Amino-5-(1-((2-fluoro-4-hydroxyphenyl)sulfonyl)-4-hydroxy-1H-indol-6-yl)pyrimidin-4-yl)amino)ethyl)-5-methyl-3-phenylpyrrolo[2,1-f][1,2,4]triazin-4(3H)-one] |
| 0.3 nM | Cc1ccn2nc([C@H](C)Nc3ncnc4[nH]cc(-c5cc(O)cc(NC(N)=O)c5)c34)n(-c3ccccc3)c(=O)c12 [Example 175, (S)-1-(3-Hydroxy-5-(4-((1-(5-methyl-4-oxo-3-phenyl-3,4-dihydropyrrolo[2,1-f][1,2,4]triazin-2-yl)ethyl)amino)-7H-pyrrolo[2,3-d]pyrimidin-5-yl)phenyl)urea] |
| 1 nM | C[C@H](Nc1ncnc2[nH]cc(-c3cc(NS(C)(=O)=O)cc(OS(C)(=O)=O)c3)c12)c1nn2cccc2c(=O)n1-c1ccccc1 [Example 176, (S)-3-(Methylsulfonamido)-5-(4-((1-(4-oxo-3-phenyl-3,4-dihydropyrrolo[2,1-f][1,2,4]triazin-2-yl)ethyl)amino)-7H-pyrrolo[2,3-d]pyrimidin-5-yl)phenyl methanesulfonate] |
| 5 nM | Cc1ccn2nc([C@H](C)Nc3ncnc4[nH]cc(-c5cc(NS(C)(=O)=O)cc6[nH]ncc56)c34)n(-c3ccccc3)c(=O)c12 [Example 181, (S)—N-(4-(4-((1-(5-Methyl-4-oxo-3-phenyl-3,4-dihydropyrrolo[2,1-f][1,2,4]triazin-2-yl)ethyl)amino)-7H-pyrrolo[2,3-d]pyrimidin-5-yl)-1H-indazol-6-yl)methanesulfonamide] |
| 0.7 nM | CCOc1ncc(-c2c(N)ncnc2N[C@@H](C)c2nn3ccc(C)c3c(=O)n2-c2ccccc2)cc1NS(=O)(=O)c1ccc(O)cc1 [Example 187, (S)—N-(5-(4-Amino-6-((1-(5-methyl-4-oxo-3-phenyl-3,4-dihydropyrrolo[2,1-f][1,2,4]triazin-2-yl)ethyl)amino)pyrimidin-5-yl)-2-ethoxypyridin-3-yl)-4-hydroxybenzenesulfonamide] |
| 0.4 nM | Cc1nnc(-c2cccc(-c3c[nH]c4ncnc(N[C@@H](C)c5nn6ccc(C)c6c(=O)n5-c5ccccc5)c34)c2)o1 [Example 188, (S)-5-Methyl-2-(1-((5-(3-(5-methyl-1,3,4-oxadiazol-2-yl)phenyl)-7H-pyrrolo[2,3-d]pyrimidin-4-yl)amino)ethyl)-3-phenylpyrrolo[2,1-f][1,2,4]triazin-4(3H)-one] |
| 0.2 nM | Cc1ccn2nc([C@H](C)Nc3ncnc(N)c3C(=O)Oc3cc(O)cc(NS(C)(=O)=O)c3)n(-c3ccccc3)c(=O)c12 [Example 195, (S)-3-Hydroxy-5-(methylsulfonamido)phenyl 4-amino-6-((1-(5-methyl-4-oxo-3-phenyl-3,4-dihydropyrrolo[2,1-f][1,2,4]triazin-2-yl)ethyl)amino)pyrimidine-5-carboxylate] |
| 3 nM | COc1ccc(S(=O)(=O)n2ccc3ccc(-c4c(N)ncnc4N[C@@H](C)c4nn5ccc(C)c5c(=O)n4-c4ccccc4)cc32)cc1 [Example 199, (S)-2-(1-((6-Amino-5-(1-((4-methoxyphenyl)sulfonyl)-1H-indol-6-yl)pyrimidin-4-yl)amino)ethyl)-5-methyl-3-phenylpyrrolo[2,1-f][1,2,4]triazin-4(3H)-one] |
